Non-standard residues stand in square brackets, D forms with d. Residues, ends and D or L forms follow the SMILES beside them. Dopa = N[C@@H](Cc1ccc(O)c(O)c1)C(=O)O
What was measured:
[1] = biological target: T1, S100A9 (Homo sapiens, UniProt P06702); assay: Titration of S100A9 with compounds followed by intrinsic fluorescence; details: intrinsic Trp 88 fluorescence, single binding site model, legend: 75 μM S100A9, PBS pH 7.4, 20 °C, method: 1 μM S100A9, 5 nM to 2.4 μM compound, 3 h room temperature, triplicates; for Kd: read-out: apparent dissociation constant Kd
T1 construct: made in house; host or cells: E. coli
T1 sequence (P06702 1-114): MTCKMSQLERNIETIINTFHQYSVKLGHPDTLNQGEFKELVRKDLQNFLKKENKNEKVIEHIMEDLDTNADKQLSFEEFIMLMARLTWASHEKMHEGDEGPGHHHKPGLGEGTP
Method: S100A9 was titrated by each compound of interest following the changes in intrinsic fluorescence intensity, since S100A9 has one aromatic residue: Trp 88. The fitting was performed using a single binding site model to determine the apparent dissociation constant for each compound. […] A twice larger Kd was determined only for DOPA-D-H-DOPA binding.
Figure 4 Binding of DOPA and cyclen-based compounds to native S100A9 followed by intrinsic fluorescence. (a–e) Normalized titrations of S100A9 by corresponding compounds. Each compound is indicated above corresponding figure (a–e) and their Kd in captions. Symbols indicate the experimental data points and lines the fitting with a single binding site model. 75 μM S100A9, PBS, pH 7.4, and 20 °C.
First, 1 μM S100A9 was incubated in PBS, pH 7.4, room temperature for 3 h in the absence or presence of 5 nM to 2.4 μM of the studied compounds prior to fluorescence measurements. The final volume was kept at 400 μL for all samples. The fluorescence emission spectra were recorded using a Jasco spectrofluorometer FP 6500 (Japan), setting the excitation at 296 nm and emission at 350 nm wavelengths, respectively, with a 3 nm band-width on both the excitation and emission. The measurements were performed in triplicates. Fitting of the normalized titration curves was performed by using a single site binding model.

[2] = ThT incubation of individual compounds (amyloid self-assembly of the compounds); format: physicochemical; details: 75 μM compound, PBS pH7.4, 42 °C, same period as S100A9 kinetics
Method: Figure S1. Time dependence of Thioflavin-T fluorescence changes during its incubation with S100A9 and DOPA and Cyclen-based compounds. Thioflavin-T fluorescence in arbitrary units is shown along y-axis, time in minutes – along x-axis. Increase in Thioflavin-T fluorescence in the presence of 75 μM S100A9 reflects its amyloid self-assembly and shown in brown. By contrast, there were no increase in Thioflavin-T fluorescence upon incubation with 75 μM of corresponding compounds as […]
green line, for DOPA-H-H-DOPA – by orange, DOPA-D-H – by chartreuse, H-E-Cyclen – by red and […]
assembly of these compounds under the conditions of our experiments. PBS, pH7.4 and 42 °C.
(1 picture or pasted object on this page, not shown here)

[3] = biological target: T1, S100A9; assay: ThT fluorescence kinetics of S100A9 amyloid formation in the presence of compounds; format: biochemical; details: for k, kinetic rate constant of S100A9 amyloid formation: 75 μM S100A9, 20 µM ThT, PBS pH 7.4, 42 °C, isodesmic polymerization fit, triplicate; for k/kS100A9: 75 μM S100A9, PBS pH 7.4, 42 °C
Text: The amyloid formation of S100A9 in the absence and presence of DOPA and cyclen-based compounds was monitored by ThT fluorescence and is presented in Figure 2. The amyloid formation correlates with the increase of the ThT fluorescence, and the initial parts of the fibrillation kinetic curves were fitted by using an isodesmic polymerization model to derive the kinetic rates; this model has previously been used in kinetic analysis of S100A9 amyloid self-assembly.
Figure 2 Kinetics of S100A9 amyloid formation in the absence and presence of DOPA and cyclen-based compounds monitored by ThT fluorescence. (a) Amyloid kinetics monitored at the ratio of S100A9 to corresponding compound of 1:1 and (b) 1:10, respectively. Symbols indicating the experimental data points for S100A9 alone or with respective compounds are shown in the caption and the corresponding lines indicate the fitting with the isodesmic polymerization model. The equation for isodesmic polymerization fitting is shown in ((b) inset). 75 μM S100A9, PBS, pH 7.4, and 42 °C.
ThT dye is known to bind specifically to β-sheet-containing amyloid structures and thus enables quantification of the kinetics of amyloid self-assembly. ThT assay was performed as described previously. First, 75 μM S100A9 was transferred into Nunc 96U black well plates with transparent bottoms and then 20 µM ThT was added to each well. The compounds dissolved in PBS were added to S100A9 solution with molar ratios of 1:1 and 1:10, respectively. Sample volumes were kept at 200 μL per well. The plates were immediately covered, placed into a Tecan F200 PRO plate reader, and incubated at 42 °C with 432 rpm orbital shaking every 10 min. ThT fluorescence was recorded every 10 min. Filters at 430 and 495 nm wavelengths with a 20 nm band width each were used for excitation and emission, respectively. Each sample was incubated in triplicate. ThT fluorescence intensities were normalized.

[4] = test system: S100A9 amyloid fibrils; assay: AFM imaging of S100A9 fibrils, fibril height distributions; format: biochemical; details: PBS pH 7.4, 42 °C; for S100A9 fibril morphology change (AFM): molar ratio 1:1; for median height of S100A9 fibrils (AFM): molar ratio 1:10, text, S100A9 alone ca. 1.6 nm
Method: In order to complement the kinetic analysis, we also monitored the S100A9 amyloid formation by AFM imaging (Figure 3). The amyloid fibrils of S100A9 alone that developed after 100 h of incubation in PBS, pH 7.4, and 42 °C were very flexible, relatively short, i.e., within 200–600 nm length, and also characterized by a narrow distribution of the heights with a median at ca. 1.6 nm in the AFM cross-sections. In the presence of all DOPA-based compounds, the fibrils of S100A9 become thicker with median heights of ca. 2.0–2.2 nm, and generally longer (Figure 3). […] At the molar ratio of S100A9 to DOPA-based compounds of 1:10, the height of fibrils became even thicker, shifting towards 2.2–2.8 nm median height and in the case of DOPA-D-H-DOPA to 3.0–3.2 nm (Figure 3), while their lengths remained about the same as at the 1:1 molar ratio.
Figure 3 AFM imaging of S100A9 fibrils in the absence and presence of DOPA and cyclen-based compounds and the analysis of fibril height distributions. (a) Representative AFM image of S100A9 fibrils incubated alone. (b,c) Distribution of fibril heights measured in AFM cross-sections. The same distribution is shown in both columns to facilitate the comparison with the following height distributions carried out in the presence of compounds. (d,g,j,m,p) Representative AFM images of S100A9 fibrils in the presence of DOPA and cyclen-based compounds at a 1:1 molar ratio of S100A9 to compound. (e,h,k,n,q) Distributions of fibril heights measured in AFM cross-sections at the S100A9 to compound molar ratio of 1:1 and (f,i,l,o,r) at molar ratio of 1:10. Image sizes are 2.5 × 2.5 μm. The compounds and molar ratios are indicated above the figures. Samples were incubated for 50 h in PBS, pH 7.4, and 42 °C. […]
S100A9 protein was expressed in E. coli and purified as described previously. Freshly dissolved S100A9 in PBS, pH 7.4 was used in all measurements. Lyophilized S100A9 was dissolved on ice in PBS buffer at pH 7.4. Then, S100A9 samples were filtered using a 0.22 µm spin membrane filter to remove any preformed aggregates. These solutions were directly subjected to experiments. To produce amyloids, S100A9 was incubated in PBS, pH 7.4, and 42 °C. The cyclic compounds (Figure 1) were dissolved in PBS at pH 7.4, and their stock solutions were kept frozen prior to measurements.
AFM imaging was performed by using a BioScope Catalyst AFM (Bruker; Phoenix, AZ, USA), operating in a peak force mode in air. The scan rate was 0.51 Hz and the resolution was 512 × 512 pixels. Bruker MSLN and SLN cantilevers were used in all measurements. Imaging was also conducted using a PicoPlus AFM (Molecular Imaging), equipped with a 100 μm scanner, operating in tapping mode in air. The resonance frequency was set in 170 to 190 kHz range, scan rate of 1 Hz, and resolution of 512 × 512 pixels. […]

| SMILES | apparent dissociation constant Kd [1] | Kd [1] | ThT fluorescence upon incubation of compound alone (amyloid self-assembly) [2] | k, kinetic rate constant of S100A9 amyloid formation ([3]; S100A9:compound 1:1) | k/kS100A9 ([3]; S100A9:compound 1:1) | k, kinetic rate constant of S100A9 amyloid formation ([3]; S100A9:compound 1:10) | k/kS100A9 ([3]; S100A9:compound 1:10) | S100A9 fibril morphology change (AFM) [4] | median height of S100A9 fibrils (AFM) [4] |
| --- | --- | --- | --- | --- | --- | --- | --- | --- | --- |
| O=C(CN1CCNCCNCCNCC1)N[C@@H](Cc1ccc(O)c(O)c1)C(=O)O [DOPA-cyclen] | sub-micromolar range | 100 ± 40 nM | flat lines close to zero | 62000 M⁻¹ s⁻¹ | 0.93 | 133000 M⁻¹ s⁻¹ |  |  |  |
| N[C@@H](Cc1ccc(O)c(O)c1)C(=O)N[C@@H](CC(=O)O)C(=O)N[C@@H](Cc1c[nH]cn1)C(=O)N[C@@H](Cc1ccc(O)c(O)c1)C(=O)O [DOPA-D-H-DOPA] (H-[Dopa]DH[Dopa]-OH) | sub-micromolar range |  | flat lines close to zero | 60000 M⁻¹ s⁻¹ | 0.91 | 66000 M⁻¹ s⁻¹ | 1 | tended to clump together, forming large clustered aggregates | 3.0–3.2 nm |
| N[C@@H](Cc1ccc(O)c(O)c1)C(=O)N[C@@H](CC(=O)O)C(=O)N[C@@H](Cc1c[nH]cn1)C(=O)O [DOPA-D-H] (H-[Dopa]-Asp-His-OH) | sub-micromolar range | 110 ± 40 nM | flat lines close to zero | 63000 M⁻¹ s⁻¹ | 0.95 | 45000 M⁻¹ s⁻¹ | 0.69 | tended to clump together, forming large clustered aggregates |  |
| N[C@@H](Cc1ccc(O)c(O)c1)C(=O)N[C@@H](Cc1c[nH]cn1)C(=O)N[C@@H](Cc1c[nH]cn1)C(=O)N[C@@H](Cc1ccc(O)c(O)c1)C(=O)O [DOPA-H-H-DOPA] (H-[Dopa]HH[Dopa]-OH) | sub-micromolar range |  | flat lines close to zero | 77000 M⁻¹ s⁻¹ | 1.17 | 134000 M⁻¹ s⁻¹ |  |  |  |
| O=C(O)CC[C@H](NC(=O)CN1CCNCCNCCNCC1)C(=O)N[C@@H](Cc1c[nH]cn1)C(=O)O [H-E-cyclen] | sub-micromolar range | 90 ± 50 nM | flat lines close to zero | 69000 M⁻¹ s⁻¹ | 1.05 | 48000 M⁻¹ s⁻¹ | 0.72 | did not lead to thickening of amyloid fibrils | 2.0 nm |

Reference: PMC8395260, “Co-Aggregation of S100A9 with DOPA and Cyclen-Based Compounds Manifested in Amyloid Fibril Thickening without Altering Rates of Self-Assembly” (International Journal of Molecular Sciences, 2021)
